Laboratory results reported in patent US20070122859A1, “Immunoassay for LSD and 2-oxo-3-hydroxy-LSD” (priority 2000, published 2007).
Where two headings read alike, the source gives them in different places.

Key:
[1] = cited from earlier work
Clone 20.2 = assay: ELISA antibody cross-reactivity, Clone 20.2; type: binding, mouse
Experimental: (§1) Cross-reactivity of three clones for LSD, nor-LSD and 2-oxo-3-hydroxy-LSD was determined using an ELISA technique. Microtiter plates were coated with 100 μl of 0.325 mg/ml LSD-BSA or 100 μl of 0.325 mg/ml 2-oxo-3-hydroxy-LSD-BSA for 1 hour at 37° C. and post-blocked with 200 μl of 1% BSA in PBS for 1 hour at room temperature. Plates were washed 3 times with 400 μl of PBS-0.1% TWEEN-20. Free LSD, nor-LSD and 2-oxo-3-hydroxy-LSD were diluted to 1000 ng/ml in PBS. Antibody was diluted 8,000 fold. Drug solutions, 200 μl of 1000 ng/ml, solutions were dispensed into the first column of an ELISA plate. The rest of the wells were filled with 100 μl of PBS. Serial dilutions of the drugs were prepared by taking 100 μl of the drug solution out of the first column and dispensing it into the second column of the plate. Contents of the wells were mixed thoroughly by pipetting the solution up and down 5 times. 100 μl out of the second column was dispensed into the third column and mixed as above. The process was repeated for all 12 columns of ELISA plates. 100 μl of solution out of the last wells was discarded. 100 μl of antibody diluted 8,000 fold was added to each well. Resulting concentrations of the drug were 500 ng/ml, 250 ng/ml, 125 ng/ml, 62.5 ng/ml, 31.2 ng/ml, 15.6 ng/ml, 7.81 ng/ml, 3.90 ng/ml, 1.95 ng/ml, 0.976 ng/ml, 0.488 ng/ml, 0.244 ng/ml. Final antibody dilution was 16,000 fold. Plates were incubated for 1 hour at 37° C. and washed 3 times with PBS-TWEEN-20. Rabbit anti-mouse HRP conjugated IgG was diluted 5,000 fold and 100 μl were added to ELISA plates. The plates were incubated for 1 hour at 37° C. and washed 3 times with PBS-TWEEN-20. 100 μl of K-BLUE substrate was dispensed into each well. Plates were incubated for 30 min at room temperature in the dark. The reaction was stopped with 100 μl of 2 M H3PO4, and absorbance was read at 450 nm.

Clone 1.1 = assay: ELISA antibody cross-reactivity, Clone 1.1; type: binding, mouse
Experimental: as §1

[2] = test system: antibodies specific for LSD; conditions: KIMS (Roche Diagnostics) immunoassay; cited from earlier work
[3] = test system: antibodies specific for LSD; conditions: EMIT (Syva Company) immunoassay; cited from earlier work
Clone 2.1 = assay: ELISA antibody cross-reactivity, Clone 2.1; type: binding, mouse
Experimental: as §1

[4] = test system: antibodies specific for LSD; conditions: CEDIA (Microgenics Corporation) immunoassay; cited from earlier work
[5] = Dilution 0.2 (free drug 0.244 ng/ml)
[6] = Dilution 0.5 (free drug 0.488 ng/ml)
[7] = Dilution 1.0 (free drug 0.976 ng/ml)
[8] = Dilution 2.0 (free drug 1.95 ng/ml)
[9] = Dilution 3.9 (free drug 3.90 ng/ml)
[10] = Dilution 7.8 (free drug 7.81 ng/ml)
[11] = Dilution 15.6 (free drug 15.6 ng/ml)
[12] = Dilution 31.3 (free drug 31.2 ng/ml)
[13] = Dilution 62.5 (free drug 62.5 ng/ml)
[14] = Dilution 125.0 (free drug 125 ng/ml)
[15] = Dilution 250.0 (free drug 250 ng/ml)
[16] = Dilution 500.0 (free drug 500 ng/ml)
[17] = based upon specificity to 2-oxo-3-hydroxy-LSD

## CCN(CC)C(=O)[C@@H]1C=C2c3cccc4c3C(O)(C[C@H]2N(C)C1)C(=O)N4 (stereo partly drawn) [2-oxo-3-hydroxy-LSD, 2-oxo-3-hydroxy-d-lysergic acid diethylamide]
[1]; urine, compared with LSD
  time detectable after ingestion of the drug: can be detected for a longer time than LSD
Clone 20.2; [5]
  A450: 0.838
Clone 20.2; [6]
  A450: 0.704
Clone 20.2; [7]
  A450: 0.430
Clone 20.2; [8]
  A450: 0.372
Clone 20.2; [9]
  A450: 0.316
Clone 20.2; [10]
  A450: 0.272
Clone 20.2; [11]
  A450: 0.220
Clone 20.2; [12]
  A450: 0.148
Clone 20.2; [13]
  A450: 0.142
Clone 20.2; [14]
  A450: 0.143
Clone 20.2; [15]
  A450: 0.144
Clone 20.2; [16]
  A450: 0.142
Clone 20.2; [17]
  Calculated percentage cross-reactivity: 100.0%
Clone 20.2; based upon specificity to LSD
  Calculated percentage cross-reactivity: 118.5%
Clone 1.1; [5]
  A450: 3.913
Clone 1.1; [6]
  A450: 3.928
Clone 1.1; [7]
  A450: 4.033
Clone 1.1; [8]
  A450: 4.015
Clone 1.1; [9]
  A450: 3.908
Clone 1.1; [10]
  A450: 3.914
Clone 1.1; [11]
  A450: 3.310
Clone 1.1; [12]
  A450: 3.108
Clone 1.1; [13]
  A450: 2.278
Clone 1.1; [14]
  A450: 1.768
Clone 1.1; [15]
  A450: 1.425
Clone 1.1; [16]
  A450: 0.871
Clone 1.1; [17]
  Calculated percentage cross-reactivity: 100.0%
Clone 1.1; based upon specificity to LSD
  Calculated percentage cross-reactivity: 133.6%
[2]
  cross-reactivity: 11%
[3]
  cross-reactivity: 1.7%
Clone 2.1; [5]
  A450: 0.846
Clone 2.1; [6]
  A450: 0.690
Clone 2.1; [7]
  A450: 0.552
Clone 2.1; [8]
  A450: 0.531
Clone 2.1; [9]
  A450: 0.372
Clone 2.1; [10]
  A450: 0.321
Clone 2.1; [11]
  A450: 0.294
Clone 2.1; [12]
  A450: 0.309
Clone 2.1; [13]
  A450: 0.243
Clone 2.1; [14]
  A450: 0.256
Clone 2.1; [15]
  A450: 0.297
Clone 2.1; [16]
  A450: 0.243
Clone 2.1; [17]
  Calculated percentage cross-reactivity: 100.0%
Clone 2.1; based upon specificity to LSD
  Calculated percentage cross-reactivity: 131.4%
[4]
  cross-reactivity: 1.8%

## CCN(CC)C(=O)[C@@H]1C=C2c3cccc4[nH]cc(c34)C[C@H]2N(C)C1 [LSD, 9,10-didehydro-N,N-diethyl-6-methylergoline-8β-carboxamide]
[1]; human urine
  parent drug excreted in human urine: about 1%
Clone 20.2; [5]
  A450: 0.833
Clone 20.2; [6]
  A450: 0.658
Clone 20.2; [7]
  A450: 0.587
Clone 20.2; [8]
  A450: 0.328
Clone 20.2; [9]
  A450: 0.284
Clone 20.2; [10]
  A450: 0.204
Clone 20.2; [11]
  A450: 0.160
Clone 20.2; [12]
  A450: 0.126
Clone 20.2; [13]
  A450: 0.126
Clone 20.2; [14]
  A450: 0.124
Clone 20.2; [15]
  A450: 0.188
Clone 20.2; [16]
  A450: 0.122
Clone 20.2; [17]
  Calculated percentage cross-reactivity: 84.4%
Clone 20.2; based upon specificity to LSD
  Calculated percentage cross-reactivity: 100.0%
Clone 1.1; [5]
  A450: 3.797
Clone 1.1; [6]
  A450: 4.085
Clone 1.1; [7]
  A450: 3.962
Clone 1.1; [8]
  A450: 3.905
Clone 1.1; [9]
  A450: 3.951
Clone 1.1; [10]
  A450: 3.831
Clone 1.1; [11]
  A450: 3.519
Clone 1.1; [12]
  A450: 3.390
Clone 1.1; [13]
  A450: 2.633
Clone 1.1; [14]
  A450: 2.050
Clone 1.1; [15]
  A450: 1.433
Clone 1.1; [16]
  A450: 0.831
Clone 1.1; [17]
  Calculated percentage cross-reactivity: 74.9%
Clone 1.1; based upon specificity to LSD
  Calculated percentage cross-reactivity: 100.0%
Clone 2.1; [5]
  A450: 0.831
Clone 2.1; [6]
  A450: 0.738
Clone 2.1; [7]
  A450: 0.579
Clone 2.1; [8]
  A450: 0.523
Clone 2.1; [9]
  A450: 0.435
Clone 2.1; [10]
  A450: 0.339
Clone 2.1; [11]
  A450: 0.303
Clone 2.1; [12]
  A450: 0.294
Clone 2.1; [13]
  A450: 0.252
Clone 2.1; [14]
  A450: 0.240
Clone 2.1; [15]
  A450: 0.234
Clone 2.1; [16]
  A450: 0.236
Clone 2.1; [17]
  Calculated percentage cross-reactivity: 76.1%
Clone 2.1; based upon specificity to LSD
  Calculated percentage cross-reactivity: 100.0%

## CCN(CC)C(=O)[C@@H]1C=C2c3cccc4[nH]cc(c34)C[C@H]2NC1 [nor-LSD, N-desmethyl-LSD]
Clone 20.2; [5]
  A450: 0.908
Clone 20.2; [6]
  A450: 0.866
Clone 20.2; [7]
  A450: 0.853
Clone 20.2; [8]
  A450: 0.799
Clone 20.2; [9]
  A450: 0.722
Clone 20.2; [10]
  A450: 0.656
Clone 20.2; [11]
  A450: 0.584
Clone 20.2; [12]
  A450: 0.464
Clone 20.2; [13]
  A450: 0.416
Clone 20.2; [14]
  A450: 0.292
Clone 20.2; [15]
  A450: 0.228
Clone 20.2; [16]
  A450: 0.288
Clone 20.2; [17]
  Calculated percentage cross-reactivity: 4.6%
Clone 20.2; based upon specificity to LSD
  Calculated percentage cross-reactivity: 5.5%
Clone 1.1; [5]
  A450: 4.019
Clone 1.1; [6]
  A450: 4.074
Clone 1.1; [7]
  A450: 4.100
Clone 1.1; [8]
  A450: 3.884
Clone 1.1; [9]
  A450: 4.035
Clone 1.1; [10]
  A450: 3.805
Clone 1.1; [11]
  A450: 3.740
Clone 1.1; [12]
  A450: 3.735
Clone 1.1; [13]
  A450: 3.601
Clone 1.1; [14]
  A450: 3.512
Clone 1.1; [15]
  A450: 3.340
Clone 1.1; [16]
  A450: 2.968
Clone 1.1; [17]
  Calculated percentage cross-reactivity: 1.9%
Clone 1.1; based upon specificity to LSD
  Calculated percentage cross-reactivity: 2.6%
Clone 2.1; [5]
  A450: 0.900
Clone 2.1; [6]
  A450: 0.859
Clone 2.1; [7]
  A450: 0.842
Clone 2.1; [8]
  A450: 0.792
Clone 2.1; [9]
  A450: 0.786
Clone 2.1; [10]
  A450: 0.696
Clone 2.1; [11]
  A450: 0.648
Clone 2.1; [12]
  A450: 0.504
Clone 2.1; [13]
  A450: 0.444
Clone 2.1; [14]
  A450: 0.384
Clone 2.1; [15]
  A450: 0.318
Clone 2.1; [16]
  A450: 0.276
Clone 2.1; [17]
  Calculated percentage cross-reactivity: 1.8%
Clone 2.1; based upon specificity to LSD
  Calculated percentage cross-reactivity: 2.3%
